# From patent publication US9074019B2, “Methods, systems, and compositions for calpain inhibition” (HENRY FORD HEALTH SYSTEMS, priority 2008, dated 2015)
# Where “and” joins values, the source holds several entries; their conditions need not be identical. Equal values may be shown once. Entries after “also recorded” stand apart in the source; their conditions may differ. Square brackets hold non-standard residues; d marks the D form. Ends that are not written are not given here. βAla = NCCC(=O)O
# Key:
# [1] = tested on: focal cerebral ischemia (2 hour MCAO); experiment: Infarct volume after 2 hour middle cerebral artery occlusion (MCAO) in rats; assay type: in vivo, male Wistar rats; details: for infarct volume: 3 mg/kg i.v. 4 h, mean±SEM, no unit printed in this block, in %; for Lesion Volume % of Hemisphere (percent hemispheric infarct volume): 3 mg/kg i.v. infusion for 4 h after reperfusion, mean ± SE, n=9, 3 mg/kg
# Text: (§1) We developed our peptidomimetic inhibitors of calpain by rational and systematic chemical modifications of the amide bond and/or side chain functionalities of permutations of SEQ ID NO: 2, followed by calpain-inhibitory kinetic measurements of the designed molecules in vitro as well as an assessment of their ability to improve neurological recovery in vivo after focal cerebral ischemic in rats. The structural modifications performed to create the peptidomimetics included, without limitation, amino acid replacements by chemical mutagenesis, amide bond mimics, methylene group insertion between the α-carbon and the carbonyl functionalities of individual amino acids, replacement of natural amino acid side chains with non-natural moieties, and amino acid side chain cyclizations. Calpain-inhibitory activity of the peptidomimetics was measured by steady-state and stopped-flow enzyme inhibition kinetic studies using purified calpain and natural protein or synthetic fluorogenic peptide substrates. The effect of the peptidomimetics on cerebral infarction, cerebral endothelial function and neurological functional recovery after ischemic stroke was assessed using a rat model of 2 hour middle cerebral artery (“MCAO”) ischemia.
# (§2) Based on our studies, we selected and further tested SEQ ID NO: 5 for its cerebroprotective capacity after 2 hour middle cerebral artery (“MCAO”) ischemia in the Two hour MCAO by the suture method was induced in 21 male Wistar rats. […] Animals survived 7 days and neurological testing (score 0-3, 3 being the most severe) was performed. After sacrifice the brain samples were formalin fixed and infarct volumes were calculated using standard computerized image analysis. Independent t-test was used for statistical analysis.
# (§3) Following an institutionally approved animal care protocol, male Wistar rats (270-290 g) were obtained from Charles River Breeding Co. (Wilmington, Mass., USA). Two-hour middle cerebral artery occlusion (MCAO) by the intravascular suture method, drug infusion, measurement of infarct volume and neurological deficits were performed as detailed previously.
# (§4) SEQ ID NO: 5 (50 μM solution, i.v. infusion at 15 μl/min for 4 h; 3 mg/kg), SEQ ID NO: 13 or vehicle (1% DMSO in saline) was administered to rats […] (n=6-9) immediately after reperfusion following 2 h of MCAO. Sham-operated animals had surgery but no MCA occlusion. Animals to be studied for neurological score and infarct volume survived 7 days.
# From the H&E sections, the ischemic core area with diffuse pallor of the eosinophilic background and the border area with vacuolation or sponginess and neutrophils can be identified under the microscope. […] The subcortical region in the core slices of C and D is also affected (white arrows). The ischemic damage (i.e. cell death, loss of tissue, or encephalomalacia) is less in the SEQ ID NO: 5-treated animals compared to the vehicle-treated controls. By comparison, the contralateral side appeared undamaged by both gross inspection and in histological sections.
# [2] = tested on: focal cerebral ischemia (2 hour MCAO); experiment: Neurological score after 2 hour MCAO in rats; assay type: in vivo, male Wistar rats; details: for Neurological Score 0 Day: score 0-3 (3 most severe), day 0; for Neurological Score 1 Day: day 1
# Protocol: as §2, §3, §4
# Neurological scores have been previously defined as follows: no observable deficit=0, forelimb flexion=1, decreased resistance to lateral push with forelimb flexion=2, same behavior as 2 plus circling=3. […] However, the difference in performance between the SEQ ID NO: 5-treated animals and the vehicle controls (1.00±0.17 vs. 1.78±0.22, *P<0.05, n=9 per group; independent t-test) and the SEQ ID NO: 13-treated group (1.00±0.17 vs. 1.44±0.18, #P<0.05, n=9 per group; independent t-test) was statistically significant at day 7 post-injury.
# We assessed functional outcome as an endpoint of our evaluation by the method of Bederson et al. Treatment with SEQ ID NO: 5 immediately after 2-h MCAO reduced neurological deficits by 24% and 44% on day 4 and day 7, respectively, compared to vehicle-treated stroke controls. Infarct volume was a secondary outcome and was measured at day 7 after stroke. The extent of cerebral infarction was reduced by 35% in the SEQ ID NO: 5-treated animals compared to vehicle-treated animals Due to the predictable location of areas of infarction and consistent production of neurological deficits in the MCAO model used in this study, the effects of SEQ ID NO: 5 on neurological outcome and size of infarction produced by focal cerebral ischemia could be reliably studied. It must be noted, however, that, infarction volumes could correlate poorly with functional outcome because small lesions in cortical locations can produce major functional deficits. Conversely, large lesions in relatively silent areas cause little detectable function loss. Reduction of neurological deficits after stroke has been attributed to synaptic and functional reorganization in the cerebral cortex and in subcortical structures after ischemic injuries.
# (§5) Two-hour middle cerebral artery occlusion (MCAO) was used to induce ischemic stroke in Male Wistar rats. SEQ ID NO: 5 was given intravenously to rats immediately after reperfusion following 2 h of MCAO, while control animals had infusion of vehicle solution (n=6-9). Animals to be studied for neurological score and infarct volume survived 7 days, and neurological testing (mNSS and corner turn) were performed at 1, 4, and 7 days after MCAO. In another set of experiments, the animals were sacrificed at 48 h, and histology was performed for BBB integrity (albumin and fibrin leakage from the cerebral microvasculature into brain parenchyma). Phosphorylation of endothelial nitric oxide synthase (eNOS) was analyzed by Western blotting with specific antibodies raised against synthetic phosphorylated peptides representing known eNOS phosphorylation sites.
# [3] = tested on: calpain-mediated cleavage of αII-spectrin; experiment: Western blot of αII-spectrin breakdown products (SBDPs) in rat brain following MCAO; assay type: in vivo, male Wistar rats
# Protocol: Following MCAO and drug infusion, the animals were sacrificed after 24 or 48 h of survival. At that time, the brains were extracted and separated into right and left, cortical and subcortical regions, snap-frozen in liquid nitrogen and stored at −80° C. until used. For Western blot analysis, the brain samples were pulverized to a fine powder with a small mortar and pestle set over dry ice. The pulverized brain tissue powder was homogenized in a solution of 0.25 M sucrose, […] 2-(N-morpholino)-ethanesulfonic acid, 1 mM EDTA, pH 6.5, containing 0.025 mM E-64, 2.0 mM AEBSF, 0.5 mM PMSF, 0.02 mM leupeptin, 0.05 mM pepstatin, and 0.001 mM aprotinin (homogenization buffer) at 4° C. in a Potter-Elvehjem homogenizer. T homogenates were then centrifuged at 4° C. for 20 min at 16,000 g. Aliquots of the supernatant were stored at −80° C. until used for experiments. Protein concentrations were determined using micro BCA Protein Assay kit (Pierce, Rockford, Ill.). SDS-PAGE was carried out according to Laemmli and immunoblots were performed according to the technique of Towbin et al. Mouse monoclonal ant II-spectrin antibody (MAB 1622, 1:1,000) and horse radish peroxidase (HRP)-conjugated goat anti-mouse IgG (AP124P, 1:10,000) were from Chemicon (Temecula, Calif.). Labeled proteins were detected with the enhanced chemiluminescence method according to the manufacturer's instructions (GE Healthcare Biosciences, Piscataway, N.J., USA). Bands were quantified by densitometry using Gel-Doc 2000 (Bio-Rad, Richmond, Va.) and the free open source software ImageJ.
# Pathologic activity of calpain and in vivo efficacy of SEQ ID NO: 5 were assessed by Western blot analysis of all-spectrin breakdown products (SBDPs) generated in the rat brain following MCAO. […] (E) Densitometric analysis of SBDP150/SBDP145 levels in ipsilateral cortex and subcortex at 24 and 48 h following MCAO.
# BBB integrity = BBB integrity (albumin and fibrin leakage into brain parenchyma) after MCAO; assay type: in vivo, male Wistar rats
# Protocol: as §5, with “sites. […] Shown are representative immunoblots of RSA levels in the ipsilateral cortical (A) and subcortical (B) regions of sham-operated, ischemic vehicle-treated, and ischemic. C, Densitometric analysis of RSA levels in ipsilateral cortex and subcortex (*p<0.05 vs vehicle; n=6) at 24 h following MCAO. […] Representative fluorescent micrographs of fibrin deposition outside the cerebral microvasculature of untreated (MCAO, panel A) and treated (+SEQ ID NO: 5, panel B) rats subjected to 2 hour MCA occlusion with reperfusion and 48 hour survival are shown. A schematic representation of a coronal brain section showing eight fields selected from the ischemic boundary zone (IBZ) for quantitative measurements of immunochemical staining for fibrin in the cortex and striatum is shown (panel C).” for “sites.”
# [4] = tested on: endothelial nitric oxide synthase (eNOS); experiment: eNOS phosphorylation in brain after MCAO (Western blotting); assay type: in vivo, male Wistar rats
# Protocol: as §5
# C: Graphical representation of the ratio of upper:lower phospho-eNOS protein band intensities (n=6 rats/experimental group).
# purified calpain = experiment: Calpain-inhibitory activity (steady-state and stopped-flow enzyme inhibition kinetics); assay type: biochemical; details: in words
# Text: as §1, §4
# [5] = rat 2-h MCAO, 3 mg/kg i.v. 4 h, mean ± SE, n=9
# [6] = rat 2-h MCAO, 3 mg/kg i.v. 4 h, score 0-3, mean ± SE, n=9
# [7] = rat 2-h MCAO, 3 mg/kg i.v. 4 h, score 0-3, mean ± SE, n=9, day 4
substance,measurement,setting,value
DPMSSTYIEELGKREVTIPPKYVALLPAVLLALLAP [SEQ ID NO: 5],"ischemic damage (cell death, loss of tissue, encephalomalacia) in H&E sections","[1]; FIG. 3, compared to vehicle-treated controls",less
same,infarct volume,"[1]; rat 2-h MCAO, day 7",24.9±3.8
same,Lesion Volume % of Hemisphere (percent hemispheric infarct volume),"[1]; rat 2-h MCAO, day 7","24.9±3.8 % of Hemisphere and 24.9 ± 3.8*^,# % of Hemisphere"
same,reduction of infarct volume (extent of cerebral infarction) compared to vehicle-treated animals,"[1]; rat 2-h MCAO, day 7",35%
same,improving neurological recovery,"[2]; 50 micromolar solution via femoral vein for 4 hours after reperfusion, total dose 3 mg/kg",effective
same,Neurological Score 0 Day,[2]; [5],2.89 ± 0.11
same,Neurological Score 1 Day,[2]; [6],2.33 ± 0.24
same,Neurological Score 4 Days,[2]; [7],1.44 ± 0.18
same,"reduction of neurological deficits compared to vehicle-treated stroke controls, day 4","[2]; rat 2-h MCAO, treatment immediately after MCAO, day 4",24%
same,"reduction of neurological deficits compared to vehicle-treated stroke controls, day 7","[2]; rat 2-h MCAO, treatment immediately after MCAO, day 7",44%
same,calpain-mediated cleavage of αII-spectrin in rat brain following MCAO,"[3]; FIG. 4, 24 h and 48 h",blocks calpain-mediated cleavage of αII-spectrin
same,SBDP145 levels at 48 h post-injury,"[3]; cortical and subcortical regions, 48 h after MCAO, P<0.05 vs. vehicle, n=6",significantly reduced SBDP145 levels
same,SBDP150 and SBDP145 formation at 24 h post-injury,"[3]; ipsilateral cortex and subcortex, 24 h after MCAO",blocked SBDP150 and SBDP145 formation to basal levels; also recorded: completely blocked SBDP145 accumulation
same,BBB integrity as assessed by albumin and fibrin extravasation,"BBB integrity; 48 h, compared to controls",significant improvement
same,rat serum albumin (RSA) leakage into the ischemic brain parenchyma,"BBB integrity; FIG. 5, ipsilateral cortex and subcortex, 24 h following MCAO, p<0.05 vs vehicle, n=6",reduces rat serum albumin (RSA) leakage
same,fibrin deposition outside the cerebral microvasculature,"BBB integrity; FIG. 6, 2 hour MCA occlusion with reperfusion and 48 hour survival",decreases fibrin deposition outside the cerebral microvasculature
same,"eNOS phosphorylation state (eNOS-Ser633, ratio of upper:lower band)","[4]; FIG. 7, n=6 rats/group",modulates eNOS phosphorylation state
same,eNOS threonine-495 phosphorylation in the brain after stroke,"[4]; post-injury treatment, FIG. 8",significantly reduced; also recorded: induces eNOS-Thr495 dephosphorylation
same,calpain inhibitory activity,purified calpain,potent
same,specificity for calpain,purified calpain,specific inhibitor of calpain
same,toxicity to cultured cells,cultured cells,non-toxic to cultured cells
"DPMSSTYIEE[βAla]GKREVTIPPKYVALLPAVLLALLAP [SEQ ID NO: 13, reference compound]",infarct volume,"[1]; rat 2-h MCAO, day 7",33.8±4.2
same,Lesion Volume % of Hemisphere (percent hemispheric infarct volume),"[1]; rat 2-h MCAO, day 7",33.8±4.2 % of Hemisphere
same,Neurological Score 0 Day,[2]; [5],2.89 ± 0.11
same,Neurological Score 1 Day,[2]; [6],2.11 ± 0.20
same,Neurological Score 4 Days,[2]; [7],1.56 ± 0.18
same,Neurological Score 7 Days,"[2]; rat 2-h MCAO, 3 mg/kg i.v. 4 h, score 0-3, mean ± SE, n=9, day 7, 3 mg/kg",1.44±0.18
same,calpain inhibitory activity,purified calpain,less active
same,calpain inhibitory activity,purified calpain; listed as SEQ ID NO: 5-βAla,inactive
